Measurements as given in patent US10173974B1, “Natural product-based synthesis of novel anti-infective isothiocyanate- and isoselenocyanate-functionalized amphilectane diterpenes” (priority 2015, dated 2019).
Values after ≈ are worked out from the molar mass of the structure shown. Like-named read-outs stand apart in the source and are kept apart here.

Experiments:
[1] = tested on: Vero cell line ATCC CRL-1586
[2] = tested on: Mtb H37Rv (ATCC 27 294); test: Microplate Alamar blue assay (MABA), antitubercular activity; assay type: cell-based, Mycobacterium tuberculosis; settings: for MABA MIC: Mtb H37Rv
[3] = tested on: P. falciparum Dd2 (drug resistant); test: SYBR Green parasite proliferation assay, P. falciparum Dd2 strain; assay type: cell-based, Plasmodium falciparum
[4] = tested on: P. falciparum 3D7 (chloroquine-sensitive); test: SYBR Green parasite proliferation assay, P. falciparum 3D7 strain; assay type: cell-based, Plasmodium falciparum
[5] = in vitro; settings: African green monkey
[6] = P. falciparum Dd2 (drug resistant), 72 h incubation, in vitro growth inhibition
[7] = P. falciparum 3D7 (chloroquine-sensitive), 72 h incubation, in vitro growth inhibition

“8-Isothiocyano-15-isoselenocyano-11(20)-amphilectene (3) and 8-Isoselenocyano-15-isothiocyano-11(20)-amphilectene (4) [Compound 3 and 4]” gave a CC50 [1] of 78100 nM.
For `[C-]#[N+]C(C)(C)CC1CC(C)C2CCC(C)C3([N+]#[C-])CCC(=C)C1C23` (single isomer, unassigned; (-)) [Compound 1, (−)-8,15-diisocyano-11(20)-amphilectene, reference compound], the “MABA MIC” value [2] was 9.8 µM, the IC50 [3, 6] was 3.1 nM and the IC50 [4, 7] was 1.2 nM.
In the case of `CCN(CC)CCCC(C)Nc1ccnc2cc(Cl)ccc12` (centres unmarked) [CQ, chloroquine, reference compound], the IC50 ([3]; Plasmodium falciparum, P. falciparum Dd2 (drug resistant), 72 h incubation, in vitro growth inhibition) is reported as 51.9 nM and the IC50 ([4]; Plasmodium falciparum, P. falciparum 3D7 (chloroquine-sensitive), 72 h incubation, in vitro growth inhibition) is reported as 10.9 nM.
For `C=C1CC[C@@]2(N=C=S)[C@H]3[C@H](CC[C@@H]2C)[C@@H](C)C[C@@H](CC(C)(C)N=C=S)[C@H]13` [Compound 2, 8,15-Diisothiocyano-11(20)-amphilectene], the “MABA MIC” value [2] was 99.1 µM, the IC50 [3, 6] was 11600 nM and the IC50 [4, 7] was 11800 nM.
For `C=C1CC[C@@]2(N=C=[Se])[C@H]3[C@H](CC[C@@H]2C)[C@@H](C)C[C@@H](CC(C)(C)N=C=[Se])[C@H]13` [Compound 5, 8,15-Diisoselenocyano-11(20)-amphilectene], the “MABA MIC” value [2] was 3.9 µM, the IC50 [3, 6] was 6.6 nM and the IC50 [4, 7] was 2.5 nM.
With `C=C(C)C[C@@H]1C[C@H](C)[C@H]2CC[C@H](C)[C@@]3(N=C=[Se])CCC(=C)[C@@H]1[C@H]23` [Compound 6, 8-Isoselenocyanoamphilecta-11(20),15-diene] the “MABA MIC” value [2] was 2.1 µM, the IC50 [3] was 149 nM and the IC50 [4] was 188 nM.
`CO[C@H]1/C=C/O[C@@]2(C)Oc3c(C)c(O)c4c(O)c(c(/C=N/N5CCN(C)CC5)c(O)c4c3C2=O)NC(=O)/C(C)=C\C=C\[C@H](C)[C@H](O)[C@@H](C)[C@@H](O)[C@@H](C)[C@H](OC(C)=O)[C@@H]1C` [RMP, rifampicin, reference compound] showed an MIC ([2]; Mycobacterium tuberculosis, read-out: MABA MIC) of 0.09 µM (≈ 0.0741 µg/mL) and a CC50 [5] of over 100000 nM.
